Assay results from patent publication US20240287080A1 (IDEAYA Biosciences Inc., priority 2021, published 2024).

Target: T1, Pol theta (1-899) (Homo sapiens, UniProt O75417)
T1 construct: Pol theta (1-899) (5 nM) in assay buffer
Experiment: Pol theta ATPase activity, NADH oxidation-coupled enzymatic assay (ATPase NADH coupling: Standard Screening: hPolQ)
Type: biochemical
Details: Table 5; Pol theta (1-899) 5 nM, ATP, dT50 ssDNA
Method: The ability of the compounds of Formula (I) or Table 1 to inhibit ATPase activity of Pol theta (1-899) was determined using the assay described below. Pol Theta ATPase activity was determined by measuring the rate of ATP turn over in a NADH oxidation-coupled enzymatic assay. 10-point dilution series of compounds were used in a 384 well format for the inhibition assays. Pol theta (1-899) (5 nM) in assay buffer (20 mM Tris HCl (pH 7.80), 80 mM KCl, 10 mM MgCl2, 1 mM DTT, 0.01% BSA, 0.01% Tween, 5% glycerol) was transferred to the test wells (20 μL), except the low control wells (20 μL of assay buffer was added to the low control wells). The plate was then incubated at room temperature for 15 min. An equal volume (20 μL) of 100 μM ATP, 300 nM […] (single-stranded DNA (ssDNA) containing 50 thymine bases), 300 μM NADH, 6 mM PEP, 10 U/mL lactate dehydrogenase and 20 U/mL pyruvate kinase in assay buffer was added to all the test wells. The plate was then centrifuged at 1000 rpm for 1 min. The reaction was monitored for 60 min by measuring absorbance (λ=340 nm) in a Tecan Spark multimode plate reader every minute. The high control (DMSO with enzyme) with low absorbance intensity represents no inhibition of ATPase reaction while the low control (DMSO with buffer) with high absorbance intensity represents full inhibition of ATPase activity. Slope of the reaction progress curves were used to calculate the rate of ATP hydrolysis. The rates were used to determine the percent inhibition using a four-parameter inhibition model to generate IC50, Hill slope and max inhibition.

T1 sequence (O75417 1-899): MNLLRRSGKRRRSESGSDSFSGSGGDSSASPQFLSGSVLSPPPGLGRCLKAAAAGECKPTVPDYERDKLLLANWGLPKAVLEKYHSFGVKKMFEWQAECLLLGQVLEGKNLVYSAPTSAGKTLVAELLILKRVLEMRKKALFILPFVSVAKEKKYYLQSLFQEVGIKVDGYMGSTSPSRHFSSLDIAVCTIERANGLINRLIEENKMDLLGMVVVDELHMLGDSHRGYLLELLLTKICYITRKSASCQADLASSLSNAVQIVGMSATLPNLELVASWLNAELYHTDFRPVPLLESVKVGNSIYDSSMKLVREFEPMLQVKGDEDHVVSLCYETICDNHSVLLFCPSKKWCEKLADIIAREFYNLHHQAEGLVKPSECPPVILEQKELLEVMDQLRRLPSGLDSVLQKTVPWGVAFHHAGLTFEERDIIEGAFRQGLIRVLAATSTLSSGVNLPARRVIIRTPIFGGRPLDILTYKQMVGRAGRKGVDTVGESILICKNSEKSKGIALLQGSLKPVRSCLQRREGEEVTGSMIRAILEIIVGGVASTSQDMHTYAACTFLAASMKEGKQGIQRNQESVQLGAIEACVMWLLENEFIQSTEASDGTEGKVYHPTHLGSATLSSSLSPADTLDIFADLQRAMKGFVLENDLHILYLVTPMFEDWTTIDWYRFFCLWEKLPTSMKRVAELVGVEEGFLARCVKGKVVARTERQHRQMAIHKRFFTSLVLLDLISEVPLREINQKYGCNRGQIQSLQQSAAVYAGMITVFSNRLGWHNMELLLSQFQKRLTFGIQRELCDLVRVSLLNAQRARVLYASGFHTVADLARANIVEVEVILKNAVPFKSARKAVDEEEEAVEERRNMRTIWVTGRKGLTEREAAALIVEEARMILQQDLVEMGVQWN

Row | Structure (SMILES) | IC50 [nM]
1 | COc1cnc(Cl)cc1-c1cc(C)ncc1C(=O)Nc1nnc(O[C@H]2C[C@H](OC)C2)s1 (single isomer, unassigned) [Example 133, 2′-chloro-5′-methoxy-N-(5-((1r,3r)-3-methoxycyclobutoxy)-1,3,4-thiadiazol-2-yl)-6-methyl-(4,4′-bipyridine)-3-carboxamide] | ≤ 200
2 | COc1cnc(Cl)cc1-c1cc(C)ncc1C(=O)Nc1nnc(O[C@H]2CCC23COC3)s1 (single isomer, unassigned) [Example 136] | ≤ 200
3 | COc1cnc(Cl)cc1-c1cc(C)ncc1C(=O)Nc1nnc(O[C@@H]2CCC23COC3)s1 (single isomer, unassigned) [Example 137] | ≤ 200
4 | COc1cnc(Cl)cc1-c1cc(C)ncc1C(=O)Nc1nnc(O[C@@]2(C)CCOC2)s1 (single isomer, unassigned) [Example 138] | ≤ 200
5 | COc1cnc(Cl)cc1-c1cc(C)ncc1C(=O)Nc1nnc(O[C@]2(C)CCOC2)s1 (single isomer, unassigned) [Example 139] | 200 to 500
6 | COc1cnc(Cl)cc1-c1cc(C)ncc1C(=O)Nc1nnc(O[C@H]2CC[C@](C)(O)CC2)s1 (single isomer, unassigned) [Example 140, 2′-chloro-N-(5-(((1r,4r)-4-hydroxy-4-methylcyclohexyl)oxy)-1,3,4-thiadiazol-2-yl)-5′-methoxy-6-methyl-(4,4′-bipyridine)-3-carboxamide] | ≤ 200
7 | COc1cnc(Cl)cc1-c1cc(C)ncc1C(=O)Nc1nnc(O[C@H]2CC[C@@](C)(O)CC2)s1 (single isomer, unassigned) [Example 141, 2′-chloro-N-(5-(((1s,4s)-4-hydroxy-4-methylcyclohexyl)oxy)-1,3,4-thiadiazol-2-yl)-5′-methoxy-6-methyl-(4,4′-bipyridine)-3-carboxamide] | ≤ 200
8 | COc1cnc(Cl)cc1-c1cc(C)ncc1C(=O)Nc1nnc(O[C@H]2CCC[C@@H](OC)C2)s1 (single isomer, unassigned) [Example 145] | ≤ 200
9 | COc1cnc(Cl)cc1-c1cc(C)ncc1C(=O)Nc1nnc(O[C@@H]2CCC[C@H](OC)C2)s1 (single isomer, unassigned) [Example 146] | ≤ 200
10 | COc1cnc(Cl)cc1-c1cc(C)ncc1C(=O)Nc1nnc(O[C@H]2CCC[C@H](OC)C2)s1 (single isomer, unassigned) [Example 147] | ≤ 200
11 | COc1cnc(Cl)cc1-c1cc(C)ncc1C(=O)Nc1nnc(O[C@@H]2CCC[C@@H](OC)C2)s1 (single isomer, unassigned) [Example 148] | ≤ 200
12 | COc1cnc(Cl)c(F)c1-c1cc(C)ncc1C(=O)Nc1nnc(O[C@H]2C[C@H](OC)C2)s1 (single isomer, unassigned) [Example 151, 2′-chloro-3′-fluoro-5′-methoxy-N-(5-((1r,3r)-3-methoxycyclobutoxy)-1,3,4-thiadiazol-2-yl)-6-methyl-(4,4′-bipyridine)-3-carboxamide] | ≤ 200
13 | COc1cnc(Cl)c(F)c1-c1cc(C)ncc1C(=O)Nc1nnc(O[C@H]2CC[C@@H](OC)CC2)s1 (single isomer, unassigned) [Example 152, 2′-chloro-3′-fluoro-5′-methoxy-N-(5-(((1s,4s)-4-methoxycyclohexyl)oxy)-1,3,4-thiadiazol-2-yl)-6-methyl-(4,4′-bipyridine)-3-carboxamide] | ≤ 200
14 | COc1cnc(Cl)c(F)c1-c1cc(C)ncc1C(=O)Nc1nnc(O[C@H]2CC[C@H](OC)CC2)s1 (single isomer, unassigned) [Example 153, 2′-chloro-3′-fluoro-5′-methoxy-N-(5-(((1r,4r)-4-methoxycyclohexyl)oxy)-1,3,4-thiadiazol-2-yl)-6-methyl-(4,4′-bipyridine)-3-carboxamide] | ≤ 200
15 | COc1cnc(Cl)c(F)c1-c1cc(C)ncc1C(=O)Nc1nnc(O[C@H]2CCC[C@@H](O)C2)s1 (single isomer, unassigned) [Example 154] | ≤ 200
16 | COc1cnc(Cl)c(F)c1-c1cc(C)ncc1C(=O)Nc1nnc(O[C@@H]2CCC[C@H](O)C2)s1 (single isomer, unassigned) [Example 155] | ≤ 200
